Measured values as given in patent US8937039B2, “Peptide-based peroxidase inhibitors and methods of using same” (The Medical College of Wisconsin, Inc., priority 2009, dated 2015).
Entries after “also recorded” stand apart in the source; their conditions may differ. Residues, ends and D or L forms follow the SMILES beside them.

What was measured:
[1] = Solubility in aqueous buffers; type: physicochemical
SCD mice = experiment: WBC counts in treated SCD mice (cytometry); type: in vivo, mouse; settings: KYC-treated SCD mice
Procedure: […] vascular function in SCD mice. To determine whether inhibiting MPO improves vascular function and/or reduces inflammation in vivo, SCD mice were treated with KYC for three weeks. […] Such physiological and structural changes are consistent with immunofluorescent studies showing that chlorotyrosine and MPO levels are reduced in the aortas of KYC-treated SCD mice compared with non-treated SCD mice (FIG. 13). High WBC counts are indicative of on-going inflammation in SCD and predictive of future vaso-occlusive events. Accordingly, WBC levels were quantified in the SCD mice using standard cytometry assays.

MPO = molecular target: T1, MPO (Homo sapiens, UniProt P05164); experiment: MPO-mediated LDL Trp oxidation (Trp fluorescence); type: biochemical; design: purchased Lee Biosolutions (St. Louis, Mo.); settings: MPO/H2O2/NO2−, 30 min, room temperature
T1 sequence (P05164 49-745): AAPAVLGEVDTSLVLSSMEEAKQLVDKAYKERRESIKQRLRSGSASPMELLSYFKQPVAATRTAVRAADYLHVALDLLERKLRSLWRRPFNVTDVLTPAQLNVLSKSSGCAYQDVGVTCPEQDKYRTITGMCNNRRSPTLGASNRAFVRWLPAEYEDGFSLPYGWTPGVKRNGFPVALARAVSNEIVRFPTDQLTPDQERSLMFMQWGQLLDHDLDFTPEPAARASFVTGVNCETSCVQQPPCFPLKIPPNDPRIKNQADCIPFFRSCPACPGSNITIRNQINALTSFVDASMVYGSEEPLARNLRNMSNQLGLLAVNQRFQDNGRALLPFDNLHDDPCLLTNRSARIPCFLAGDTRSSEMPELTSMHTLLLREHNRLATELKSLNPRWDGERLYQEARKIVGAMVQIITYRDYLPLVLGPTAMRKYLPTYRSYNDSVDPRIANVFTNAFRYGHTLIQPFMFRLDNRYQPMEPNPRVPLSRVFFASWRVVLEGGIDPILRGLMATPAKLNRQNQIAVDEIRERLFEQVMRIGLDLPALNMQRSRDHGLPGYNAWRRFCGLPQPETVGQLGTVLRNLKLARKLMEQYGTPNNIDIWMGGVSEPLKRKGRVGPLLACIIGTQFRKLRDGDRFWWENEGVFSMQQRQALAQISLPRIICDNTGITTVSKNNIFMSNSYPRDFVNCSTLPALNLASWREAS
Procedure: MPO-mediated LDL Trp Oxidation: Reaction mixtures containing LDL (0.15 mg/mL), NaNO2 (100 μM), H2O2 (100 μM), MPO (20 nM) and increasing concentrations of KYC in a phosphate buffer (100 mM, pH 7.4) containing DTPA (100 μM) were incubated at room temperature for 30 min. Reactions were stopped by addition of catalase (2,000 units/mL) and the oxidation of Trp in LDL was determined by measuring changes in the intrinsic fluorescence of Trp (Ex 294 nm/Em 345 nm) using a LC-50 fluorometer (Perkin Elmer, Waltham Mass.).

NADPH oxidase (NOX) = molecular target: T2, NADPH oxidase (NOX) (Homo sapiens, UniProt P04839); experiment: PMA-stimulated HL-60 cell superoxide formation (SOD-inhibitable cytochrome C reduction); type: cell-based; settings: cytochrome C assay
T2 construct: host or cells: HL-60 cells stimulated with PMA
T2 sequence (P04839 2-570 limits assumed): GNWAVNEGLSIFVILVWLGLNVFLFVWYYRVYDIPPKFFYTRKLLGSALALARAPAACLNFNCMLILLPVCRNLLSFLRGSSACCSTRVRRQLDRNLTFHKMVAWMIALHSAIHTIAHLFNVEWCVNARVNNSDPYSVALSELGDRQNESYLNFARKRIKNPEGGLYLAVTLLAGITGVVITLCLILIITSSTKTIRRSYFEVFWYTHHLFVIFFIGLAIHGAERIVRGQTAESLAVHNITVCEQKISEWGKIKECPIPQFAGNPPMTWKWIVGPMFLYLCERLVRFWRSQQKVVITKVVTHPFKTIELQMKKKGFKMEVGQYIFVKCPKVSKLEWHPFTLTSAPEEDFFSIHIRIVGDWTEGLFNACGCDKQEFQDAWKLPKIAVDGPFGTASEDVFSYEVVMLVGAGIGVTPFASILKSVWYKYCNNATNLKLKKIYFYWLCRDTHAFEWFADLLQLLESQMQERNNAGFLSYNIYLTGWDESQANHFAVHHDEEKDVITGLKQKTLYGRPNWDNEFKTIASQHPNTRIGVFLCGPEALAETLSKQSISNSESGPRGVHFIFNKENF
T2 sequence (P13498 2-195 partner limits assumed): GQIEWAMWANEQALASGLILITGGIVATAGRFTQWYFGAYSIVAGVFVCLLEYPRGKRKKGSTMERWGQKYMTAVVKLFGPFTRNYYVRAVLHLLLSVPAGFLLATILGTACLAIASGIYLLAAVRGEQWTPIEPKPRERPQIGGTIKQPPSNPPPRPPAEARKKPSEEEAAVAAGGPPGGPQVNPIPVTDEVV
Procedure: PMA-induced Superoxide Anion Formation. HL-60 cells were cultured in RPMI 1640 medium containing 10% FCS (passage 20-50). HL-60 cells were harvested by centrifugation (1000 rpm, 10 min), washed 2× with phosphate buffer (10 mM, pH 7.4) with NaCl (138 mM), KCl (2.67 mM), CaCl2 (0.901 mM), MgCl2 (0.493 mM) and glucose (1 mg/ml) to remove culture medium. The HL-60 cells (6×10^6/0.5 ml) were re-suspended in DPBS. After stimulation with PMA (10 μM), the HL-60 cells were incubated with cytochrome C (40 μM) with or without superoxide dismutase at 37° C. for 30 min. The reaction was stopped by centrifugation. Cytochrome C reduction was measured at 550 nm on a UV-Vis spectrophotometer (Agilent, Model 8453).
PMA-stimulated HL-60 cell O2.^− Formation: HL-60 cells were harvested by centrifugation (1000 rpm, 10 min), washed twice with DPBS with glucose to remove culture medium. The HL-60 cells (1.2×10^7/ml) were re-suspended in DPBS with glucose. After stimulation with PMA (10 μM), the HL-60 cells were incubated with cytochrome C (40 μM) with or without superoxide dismutase (500 units/mL) at 37° C. for 10 min and then the HL-60 cells were removed by centrifugation. Cytochrome C reduction in supernatants was measured at 550 nm using a UV-Vis spectrophotometer (Agilent, Model 8453).

Solubility in water / aqueous buffers (in words) [1]: highly water soluble
MPO-dependent oxidation of Trp residues in LDL (in words) (MPO): protected the Trp residues
SMILES: CC(=O)N[C@@H](CCCCN)C(=O)N[C@@H](Cc1ccc(O)cc1)C(=O)N[C@@H](CS)C(N)=O [KYC, N-acetyl Lysyltyrosylcysteine Amide] (Ac-Lys-Tyr-Cys-NH2)
Reduction of WBC counts (in words) (SCD mice): more than half
O2.− production in PMA-stimulated HL-60 cells (in words) (NADPH oxidase (NOX)): neither KYC nor KYC disulfide have any significant effect; also recorded: Neither KYC nor KYC disulfide had any significant effect
